Assay results from patent US11813276B2, “Compositions and methods for the treatment of AUD” (University of Southern California, priority 2020, dated 2023).

Tests used:
mice [1] = assay: Earlier ethanol drinking studies with avermectins given alone; assay type: in vivo; conditions: for time from administration to time of significant reduction of ethanol intake: avermectin alone
Description: The altered function or expression of central nervous system (CNS) genes has long been considered a significant factor in contributing to the behavioral phenotype of alcoholism. By profiling gene expression in rodent strains undergoing multiple drinking paradigms, researchers have begun to identify potential candidate genes and pathways that may impart novel mechanistic information that drives the neurobiology of alcoholism.

mice [2] = conditions: cited from earlier work

Structure (SMILES) | time from administration to time of significant reduction of ethanol intake (mice [1]) | effect of chronic administration on the reduction of ethanol intake (tolerance) (mice [1]; chronic administration) | toxicity or addictive liabilities (mice [1]; chronic administration, ethanol drinking studies) | voluntary ethanol intake (mice [2]; IVM alone, doses between 2.5 mg/kg and 10 mg/kg, mice models (Yardlet et al., 2012)) | ethanol intake (mice [2]; male and female mice, avermectin alone) | toxicity or addictive liabilities (mice [1]; mouse, in vivo)
CC[C@H](C)[C@H]1O[C@]2(CC[C@@H]1C)C[C@@H]1C[C@@H](C/C=C(\C)[C@@H](O[C@H]3C[C@H](OC)[C@@H](O[C@H]4C[C@H](OC)[C@@H](O)[C@H](C)O4)[C@H](C)O3)[C@@H](C)/C=C/C=C3\CO[C@@H]4[C@H](O)C(C)=C[C@@H](C(=O)O1)[C@]34O)O2 [IVM, ivermectin] | 8 h | did not significantly alter the reduction of ethanol intake | nor was any measured or observed obvious increase in toxicity or addictive liabilities | significant reduction in the voluntary ethanol intake | significantly reduced ethanol intake | 
CO/N=C1\C[C@]2(C[C@@H]3C[C@@H](C/C=C(\C)C[C@@H](C)/C=C/C=C4\CO[C@@H]5[C@H](O)C(C)=C[C@@H](C(=O)O3)[C@]45O)O2)O[C@H](/C(C)=C/C(C)C)[C@H]1C [MOX, moxidectin] | 4 h |  |  |  |  | nor was any measured or observed obvious increase in toxicity or addictive liabilities
